Laboratory results published in patent US20190133968A1, “Applications of benzophenones in preparation of drug” (SHANXI MEDICAL UNIVERSITY, priority 2016, published 2019).

Test system: chronic nephritis rats
Experiment: chronic nephritis rat model (passive Heymann nephritis)
Format: in vivo, SD rats
Details: gavage; for IL-1α / IL-1β / IL-6 / IL-10 / Scr: serum
Procedure: The solid dispersions are prepared through a solvent method, comprising steps of: respectively precisely weighing LM49, PVPK30 and tween80 with a weight ratio of 1:5:1, and A8, PVPK30 and tween80 with a weight ratio of 1:4:1; dissolving with appropriate absolute ethyl alcohol, continuously stirring, and uniformly mixing; placing on the water bath at 60° C., evaporating and removing the absolute ethyl alcohol, and obtaining a viscous material; placing in the freezer at −20° C., and freezing for 2 hours; taking out from the freezer, then placing in the vacuum drying oven, and drying for 24 hours; after becoming embrittlement, smashing and sieving with a sieve of 80 meshes, and then placing in the dryer for storage.
The passive Heymann nephritis is the classic model for researching the human chronic nephrosis. Thus, the present invention researches the effects of the two disclosed compounds on preventing the chronic nephritis with the model.
Ninety male SD rats having a weight of 180-220 g are selected, wherein: ten rats are selected as a blank group, and the remaining rats are used for preparing the rat Heymann nephritis models according to the method (disclosed in Journal of Proteomics, 2012, 75(3): pages 3866-3876). The successively established model rats are randomly divided into the model group, the positive control group (dexamethasone with a concentration of 0.1 mg/kg), the LM49 solid dispersion low-dose group (with the drug concentration of 3 mg/kg), the LM49 solid dispersion medium-dose group (with the drug concentration of 9 mg/kg), the LM49 solid dispersion high-dose group (with the drug concentration of 27 mg/kg), the A8 solid dispersion low-dose group (with the drug concentration of 3 mg/kg), the A8 solid dispersion medium-dose group (with the drug concentration of 9 mg/kg), and the A8 solid dispersion high-dose group (with the drug concentration of 27 mg/kg).
The rats of the blank group and the model group are administrated with the normal saline of same volume, and the rats of the other groups are respectively administrated with the drugs of the corresponding dose, by gavage, every day from model establishment for four weeks.
The blood of the rats of all groups is drawn at the second week and the fourth week from model establishment and 24-hour urine thereof is collected, for respectively measuring the contents of the urinary albumin, serum creatinine (Scr) in the serum, BUN, IL-1α, IL-1β, IL-6 and IL-10.
The data is represented in mean±(standard deviation) (x±s) and processed with the SPSS 19.0 statistical software. The one-way analysis of variance (ANOVA) is adopted for comparison among the groups, and then the LSD-Test is adopted for pairwise comparison. The differences of P<0.05 and P<0.01 are statistically significant.

[1] = high-dose 27 mg/kg, Fourth week
[2] = high-dose 27 mg/kg, Second week
[3] = medium-dose 9 mg/kg, Fourth week
[4] = medium-dose 9 mg/kg, Second week

## O=C(c1cc(OC(=O)N2CCOCC2)c(OC(=O)N2CCOCC2)cc1Cl)c1cc(Cl)ccc1OC(=O)N1CCOCC1 [A8, 4,5,2′-tris(4-morpholinemethanoyl)-2,5′-dichlorobenzophenone]
[1]
  24-hour urinary protein quantitation: 8.26 ± 1.9^ΔΔ## mg/24 h
  IL-1α: 7.33 ± 2.14^ΔΔ pg/ml
  IL-1β: 99.44 ± 39.74^ΔΔ# pg/ml
  IL-6: 56.95 ± 20.44^ΔΔ pg/ml
  IL-10: 40.21 ± 13.01 pg/mL
  Scr: 44.55 ± 10.7 µmol/L
[2]
  24-hour urinary protein quantitation: 14.77 ± 3.6^ΔΔ mg/24 h
  IL-1α: 10.69 ± 3.76 pg/mL
  IL-1β: 198.20 ± 90.01^Δ pg/ml
  IL-6: 78.66 ± 35.92^ΔΔ pg/ml
  IL-10: 60.25 ± 22.34 pg/mL
  Scr: 41.04 ± 10.1 µmol/L
low-dose 3 mg/kg, Fourth week
  24-hour urinary protein quantitation: 30.22 ± 6.8 mg/24 h
  IL-1α: 12.65 ± 3.14 pg/mL
  IL-1β: 261.33 ± 76.55^ pg/ml
  IL-6: 89.33 ± 29.89^Δ pg/ml
  IL-10: 70.66 ± 32.28 pg/mL
  Scr: 47.36 ± 13.1 µmol/L
low-dose 3 mg/kg, Second week
  24-hour urinary protein quantitation: 32.98 ± 7.7 mg/24 h
  IL-1α: 14.01 ± 3.99 pg/mL
  IL-1β: 310.21 ± 70.01 pg/mL
  IL-6: 111.79 ± 36.28 pg/mL
  IL-10: 89.33 ± 36.77 pg/mL
  Scr: 44.33 ± 11.1 µmol/L
[3]
  24-hour urinary protein quantitation: 15.01 ± 4.4^ΔΔ mg/24 h
  IL-1α: 10.10 ± 4.01 pg/mL
  IL-1β: 192.56 ± 64.69^Δ pg/ml
  IL-6: 73.57 ± 25.60^ΔΔ pg/ml
  IL-10: 61.48 ± 24.53 pg/mL
  Scr: 45.99 ± 14.4 µmol/L
[4]
  24-hour urinary protein quantitation: 20.02 ± 5.2^Δ mg/24 h
  IL-1α: 12.63 ± 4.56 pg/mL
  IL-1β: 277.65 ± 60.39 pg/mL
  IL-6: 90.31 ± 30.41^Δ pg/ml
  IL-10: 74.55 ± 32.12 pg/mL
  Scr: 45.66 ± 12.2 µmol/L

## O=C(c1cc(Br)ccc1O)c1cc(O)c(O)cc1Br [LM49, 2,5′-dibromo-4,5,2′-trihydroxyldiphenylmethanone]
[1]
  24-hour urinary protein quantitation: 9.55 ± 2.8^ΔΔ## mg/24 h
  IL-1α: 8.42 ± 2.76^ΔΔ pg/ml
  IL-1β: 200.44 ± 59.31^Δ pg/ml
  IL-6: 77.03 ± 36.53^ΔΔ pg/ml
  IL-10: 31.42 ± 10.09 pg/mL
  Scr: 46.97 ± 11.6 µmol/L
[2]
  24-hour urinary protein quantitation: 18.11 ± 3.2^Δ mg/24 h
  IL-1α: 11.44 ± 3.95 pg/mL
  IL-1β: 227.21 ± 95.41^Δ pg/ml
  IL-6: 91.11 ± 40.63^ΔΔ pg/ml
  IL-10: 55.75 ± 17.61 pg/mL
  Scr: 41.42 ± 10.6 µmol/L
low-dose 3 mg/kg, Fourth week
  24-hour urinary protein quantitation: 22.18 ± 6.3 mg/24 h
  IL-1α: 13.98 ± 3.77 pg/mL
  IL-1β: 380.39 ± 80.66^ pg/ml
  IL-6: 130.12 ± 45.19 pg/mL
  IL-10: 60.01 ± 26.61 pg/mL
  Scr: 47.78 ± 11.2 µmol/L
low-dose 3 mg/kg, Second week
  24-hour urinary protein quantitation: 34.43 ± 6.6 mg/24 h
  IL-1α: 14.53 ± 4.76 pg/mL
  IL-1β: 388.25 ± 72.31 pg/mL
  IL-6: 131.23 ± 41.33 pg/mL
  IL-10: 80.09 ± 33.11 pg/mL
  Scr: 49.44 ± 11.1 µmol/L
[3]
  24-hour urinary protein quantitation: 17.65 ± 5.7^ΔΔ mg/24 h
  IL-1α: 12.15 ± 4.76 pg/mL
  IL-1β: 297.55 ± 94.66^Δ pg/ml
  IL-6: 90.66 ± 40.03^Δ pg/ml
  IL-10: 51.51 ± 18.09 pg/mL
  Scr: 46.57 ± 10.9 µmol/L
[4]
  24-hour urinary protein quantitation: 24.99 ± 5.0 mg/24 h
  IL-1α: 13.62 ± 4.87 pg/mL
  IL-1β: 351.11 ± 100.32 pg/mL
  IL-6: 100.15 ± 32.51 pg/mL
  IL-10: 61.31 ± 23.89 pg/mL
  Scr: 45.88 ± 12.2 µmol/L
